Data on one compound can be found in patent publication US20220411422A1, “ERBB RECEPTOR INHIBITORS” (Dizal (Jiangsu) Pharmaceutical Co., Ltd., priority 2018, published 2022).

A short description of series [1]: Clinical plasma and CSF PK in HER2+ MBC patients. The series is classed as in vivo, human. As for the experimental part:
The plasma concentration of Compound 6 at the dosage of 50 to 200 mg following single dose or multiple doses were tested. […] In patients with BM, averaged Kpuu,CSF was around 1.82 and 0.78 for Compound 6 and its active metabolite Compound 16, respectively.

The nature of series [2]: Blood brain barrier penetration assay in rats (short oral absorption model with blood, plasma and brain binding). The series is classed as in vivo. The settings on record: male, Han Wistar, CSF, Table 5, rat, read-out: Kp,uu,CSF. As for the experimental part:
In vitro blood, plasma and brain binding assay was carried out with equilibrium dialysis device. […] At the end of incubation, a 50 μL aliquot from the receiver side and a 5 μL from the donor chamber were taken. The 5 μL sample was further diluted with 45 μL of blank blood, plasma or brain homogenate. Paired samples were matrix-matched with either buffer or blank matrix, and mixed for 2 min, and then precipitated with 150 μL cold acetonitrile with 100 ng/mL tolbutamide as internal standard. After centrifuging at 4000 rpm for 20 min, supernatant was diluted with 0.1% formic acid aqueous solution and analyzed for LC/MS/MS (API 4000, Applied Biosystems, Foster City). […] D is dilution factor. […] A Short oral absorption (SOA) model is an in-vivo screening model to identify brain penetration of a compound. Six male Han Wistar rats purchased from Beijing Vital River were orally dosed with the compound. […] Brain tissue was harvested and homogenized in 3× volume of 100 mM phosphate buffered saline (pH7.4). All samples were stored at ˜−70° C. prior to LC/MS/MS analysis. Standards were prepared by spiking blank plasma, blood, brain homogenate and artificial CSF. […] After 2 min vortex and 5 min centrifugation at 14,000 rpm, supernatant was analyzed by LC/MS/MS (API 4000, Applied Biosystems, Foster City). Two sets of standard curves were run at the beginning and end of each batch from blood sample analysis. For brain and CSF samples, one standard curve was analyzed along with test samples. Total brain levels, expressed as brain/blood ratio (Kp,brain) were measured by AUC(brain)/AUC(blood or plasma) in rodents after oral administration. Similarly, CSF levels represented by a ratio of CSF/blood exposure (Kp,CSF) were determined by AUC(CSF)/AUC(blood or plasma). Free fraction of test compound in biological matrix was determined by in vitro blood and brain binding assay. Kp,uu brain and Kp,uu CSF was calculated by the following equation: Kp,uu brain=AUC(brain)/AUC(blood or plasma)×(fubrain/fublood/plasma) and […] Moreover, the ability of Compounds 6 and 16 to cross BBB was assessed in both rat and monkey by measuring unbound brain-to-plasma partition ratio (Kpuu,brain) and unbound CSF-to-plasma partition ratio (Kpuu,CSF) with the method mentioned above.

Turning to `COc1cc(O[C@H]2CCN(C)CC2(F)F)c2c(Nc3ccc(Oc4ccn5ncnc5c4)c(C)c3)ncnc2c1` (single isomer, unassigned) [Compound 6], the Kp uu in series [1] (human, CSF, oral, patients with BM, read-out: averaged Kpuu,CSF) is approximately 1.82; in series [2], 0.87. For the same compound, the half-life in series [1] (human, plasma, patients, single oral dose, read-out: terminal half-life (converted)) is approximately 18 h. In addition, the accumulation entry in series [1] (patients, 15-day repeat dosing) was “Around 2 fold”. The “drug exposure versus dose” value in series [1] (patients, 50 to 200 mg) was “increased in a dose proportional manner”. Moreover, in series [1] (patients, doses ≥100 mg bid), the “free trough concentration versus pHER2 IC50 of BT474cl cells” value was “above pHER2 IC50 of BT474cl cells”.
